From patent US9199949B2, “Selective glycosidase inhibitors and uses thereof” (Alectos Therapeutics Inc., priority 2011, dated 2015)

Assays:
[1] = biological target: human O-GlcNAcase (Homo sapiens (Human), UniProt O60502); assay: Assay for determination of KI values for inhibition of O-GlcNAcase activity (fluorescence-based hOGA); assay type: biochemical; settings: purified human O-GlcNAcase, 4-Methylumbelliferyl N-acetyl-β-D-glucosaminide substrate, pH 7.0, Cheng-Prusoff
Procedure: Experimental Procedure for Kinetic Analyses: Enzymatic reactions were carried out in a reaction containing 50 mM NaH2PO4, 100 mM NaCl and 0.1% BSA (pH 7.0) using 2 mM 4-Methylumbelliferyl N-acetyl-β-D-glucosaminide dihydrate (Sigma M2133) dissolved in ddH2O, as a substrate. The amount of purified human O-GlcNAcase enzyme used in the reaction was 0.7 nM. Test compound of varying concentrations was added to the enzyme prior to initiation of the reaction. The reaction was performed at room temperature in a 96-well plate and was initiated with the addition of substrate. […] The slope of product production was determined for each concentration of compound tested and plotted, using standard curve fitting algorithms for sigmoidal dose response curves. The values for a four parameter logistic curve fit of the data were determined.

[2] = biological target: O-GlcNAcase (Rattus norvegicus (Rat), UniProt Q8VIJ5); assay: Cell-based ELISA for cellular activity of O-GlcNAcase inhibitors (O-GlcNAcylated protein, RL-2 antibody); settings: rat PC-12 cells, 24 h treatment, O-GlcNAcylated protein by RL-2 ELISA
Sequence of O-GlcNAcase (Q8VIJ5 whole entry): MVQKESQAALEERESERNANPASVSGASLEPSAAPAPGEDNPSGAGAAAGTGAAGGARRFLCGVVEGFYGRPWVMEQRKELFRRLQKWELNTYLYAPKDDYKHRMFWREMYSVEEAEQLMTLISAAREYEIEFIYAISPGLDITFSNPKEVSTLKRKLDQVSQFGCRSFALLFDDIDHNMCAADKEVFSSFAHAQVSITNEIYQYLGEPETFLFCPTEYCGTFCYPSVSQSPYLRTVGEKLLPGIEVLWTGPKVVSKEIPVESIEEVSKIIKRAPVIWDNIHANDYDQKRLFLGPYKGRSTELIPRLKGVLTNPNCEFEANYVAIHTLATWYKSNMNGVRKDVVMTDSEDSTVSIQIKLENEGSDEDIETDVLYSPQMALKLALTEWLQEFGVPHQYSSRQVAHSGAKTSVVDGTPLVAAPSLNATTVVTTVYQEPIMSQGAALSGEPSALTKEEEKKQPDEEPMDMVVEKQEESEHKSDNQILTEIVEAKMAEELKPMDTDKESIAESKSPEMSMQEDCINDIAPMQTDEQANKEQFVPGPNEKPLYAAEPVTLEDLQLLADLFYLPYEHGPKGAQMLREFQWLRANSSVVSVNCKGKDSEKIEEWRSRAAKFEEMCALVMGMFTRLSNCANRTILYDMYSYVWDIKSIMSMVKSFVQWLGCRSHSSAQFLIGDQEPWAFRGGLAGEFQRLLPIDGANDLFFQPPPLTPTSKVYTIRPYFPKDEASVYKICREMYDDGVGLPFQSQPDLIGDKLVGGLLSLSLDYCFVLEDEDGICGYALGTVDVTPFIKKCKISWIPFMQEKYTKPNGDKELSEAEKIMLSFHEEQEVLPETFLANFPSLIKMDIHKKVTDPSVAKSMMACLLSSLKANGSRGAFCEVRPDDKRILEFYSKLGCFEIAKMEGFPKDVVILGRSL
Procedure: Inhibition of O-GlcNAcase, which removes O-GlcNAc from cellular proteins, results in an increase in the level of O-GlcNAcylated protein in cells. An increase in O-GlcNAcylated protein can be measured by an antibody, such as RL-2, that binds to O-GlcNAcylated protein. The amount of O-GlcNAcylated protein:RL2 antibody interaction can be measured by enzyme linked immunosorbant assay (ELISA) procedures.
Compounds to be tested were dissolved in DMSO, either 2 or 10 mM stock solution, and then diluted with DMSO and water in a two-step process using a Tecan workstation. […] To prepare a cell lysate, the media from compound treated cells was removed, the cells were washed once with phosphate buffered saline (PBS) and then lysed for 5 minutes at room temperature in 50 μL of Phosphosafe reagent (Novagen Inc, Madison, Wis.) with protease inhibitors and PMSF. The cell lysate was collected and transferred to a new plate, which was then either coated to assay plates directly or frozen −80° C. until used in the ELISA procedure. If desired, the total protein concentration of samples was determined using 20 μL of the sample using the BCA method.
The ELISA portion of the assay was performed in a black Maxisorp 96-well plate that was coated overnight at 4° C. with 100 μL/well of the cell lysate (1:10 dilution of the lysate with PBS containing protease inhibitors, phosphatase inhibitors, and PMSF). The following day the wells were washed 3 times with 300 μL/well of Wash buffer (Tris-buffered saline with 0.1% Tween 20).
The amount of O-GlcNAcylated protein, as detected by the ELISA assay, was plotted for each concentration of test compound using standard curve fitting algorithms for sigmoidal dose response curves. The values for a four parameter logistic curve fit of the data were determined, with the inflection point of the curve being the potency value for the test compound.

[3] = Assay for determination of apparent permeability (Papp) in LLC-PK1 cells; assay type: in vitro ADME; settings: pig, t=3 h, average of A to B and B to A
Procedure: Bi-directional transport was evaluated in LLC-PK1 cells in order to determine apparent permeability (Papp). LLC-PK1 cells can form a tight monolayer and therefore can be used to assess vectorial transport of compounds from basolateral to apical (B→A) and from apical to basolateral (A→B).
To determine Papp, LLC-PK1 cells were cultured in 96-well transwell culture plates (Millipore). Solutions containing the test compounds (1 μM) were prepared in Hank's Balanced Salt Solution with 10 mM HEPES. Substrate solution (150 μL) was added to either the apical (A) or the basolateral (B) compartment of the culture plate, and buffer (150 μL) was added to the compartment opposite to that containing the compound. At t=3 h, 50 μL samples were removed from both sides of monolayers dosed with test compound and placed in 96 well plates, scintillant (200 μL) or internal standard (100 μL labetolol 1 μM) was added to the samples and concentration was determined by liquid scintillation counting in a MicroBeta Wallac Trilux scintillation counter (Perkin Elmer Life Sciences, Boston, Mass.) or by LCMS/MS (Applied Biosystems SCIEX API 5000 triple quadruple mass spectrometer). [^3H]Verapamil (1 μM) was used as the positive control. The experiment was performed in triplicate.
[formula] Where: Volume of Receptor Chamber was 0.15 mL; Area of membrane was 0.11 cm^2; the Initial Concentration is the sum of the concentration measured in the donor plus concentration measured in receiver compartments at t=3 h; Δ in Concentration is concentration in the receiver compartment at 3 h; and Δ in Time is the incubation time (3×60×60=10800 s). Papp was expressed as 10^−6 cm/s.

Sequence of human O-GlcNAcase (O60502 whole entry): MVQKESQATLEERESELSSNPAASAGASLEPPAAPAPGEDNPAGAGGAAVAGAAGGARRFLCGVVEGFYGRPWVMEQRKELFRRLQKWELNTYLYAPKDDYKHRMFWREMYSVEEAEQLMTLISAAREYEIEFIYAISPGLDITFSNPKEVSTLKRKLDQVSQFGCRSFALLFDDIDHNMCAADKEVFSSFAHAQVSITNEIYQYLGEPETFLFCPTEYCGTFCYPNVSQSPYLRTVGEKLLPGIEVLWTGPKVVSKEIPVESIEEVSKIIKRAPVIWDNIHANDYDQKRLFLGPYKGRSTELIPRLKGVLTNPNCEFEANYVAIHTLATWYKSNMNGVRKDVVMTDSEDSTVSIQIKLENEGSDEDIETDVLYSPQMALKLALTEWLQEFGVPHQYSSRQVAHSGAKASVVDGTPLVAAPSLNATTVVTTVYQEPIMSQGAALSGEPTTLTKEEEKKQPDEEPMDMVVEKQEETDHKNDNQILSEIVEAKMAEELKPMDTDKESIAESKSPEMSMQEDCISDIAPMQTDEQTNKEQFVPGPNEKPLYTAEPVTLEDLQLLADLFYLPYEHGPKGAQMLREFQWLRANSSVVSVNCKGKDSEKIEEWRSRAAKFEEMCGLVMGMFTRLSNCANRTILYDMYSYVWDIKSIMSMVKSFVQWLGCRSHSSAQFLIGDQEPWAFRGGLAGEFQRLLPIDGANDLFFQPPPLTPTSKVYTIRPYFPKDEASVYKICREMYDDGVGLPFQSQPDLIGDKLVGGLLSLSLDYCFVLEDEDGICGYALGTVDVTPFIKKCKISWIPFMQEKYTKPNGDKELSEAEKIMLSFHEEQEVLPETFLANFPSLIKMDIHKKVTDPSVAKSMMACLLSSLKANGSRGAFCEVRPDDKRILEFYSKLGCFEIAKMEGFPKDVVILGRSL

Structure (SMILES)	Ki [1] [nM]	EC50 [2] [nM]	Papp at 3 h, 1 μM [3] [×10⁻⁶ cm/s]
O[C@@H]1[C@@H](CF)C[C@@H]2OC(N3CCC3)=N[C@@H]2[C@H]1O [Example 4, (3aR,4R,5R,6S,7aS)-2-(azetidin-1-yl)-6-(fluoromethyl)-3a,4,5,6,7,7a-hexahydrobenzo[d]oxazole-4,5-diol]	1.1	5.2	5.1
CNC1=N[C@@H]2[C@@H](O)[C@H](O)[C@@H](CF)C[C@@H]2O1 [Example 2, (3aR,4R,5R,6S,7aS)-6-(fluoromethyl)-2-(methylamino)-3a,4,5,6,7,7a-hexahydrobenzo[d]oxazole-4,5-diol]	–	–	6.5
O[C@H]1[C@H](O)[C@@H](C(F)F)C[C@@H]2OC(N3CCC3)=N[C@H]12 [Example 6, (3aR,4R,5R,6S,7aS)-2-(azetidin-1-yl)-6-(difluoromethyl)-3a,4,5,6,7,7a-hexahydrobenzo[d]oxazole-4,5-diol]	0.7	5.1	2.8
CNC1=N[C@@H]2[C@@H](O)[C@H](O)[C@@H](C(F)F)C[C@@H]2O1 [Example 8, (3aR,4R,5R,6S,7aS)-6-(difluoromethyl)-2-(methylamino)-3a,4,5,6,7,7a-hexahydrobenzo[d]oxazole-4,5-diol]	1.4	4.7	2.7

The next lines start with the values.

Ki [1] [nM]	EC50 [2] [nM]	Papp at 3 h, 1 μM [3] [×10⁻⁶ cm/s]	Structure (SMILES)
7	–	–	OC[C@H]1C[C@@H]2OC(N3CCC3)=N[C@@H]2[C@H](F)[C@@H]1O [Example 10, (3aS,4S,5R,6R,7aS)-2-(azetidin-1-yl)-4-fluoro-6-(hydroxymethyl)-3a,4,5,6,7,7a-hexahydrobenzo[d]oxazol-5-ol]
20.5	–	6.5	O[C@H]1[C@@H](F)[C@H]2N=C(N3CCC3)O[C@H]2C[C@@H]1C(F)F [Example 15, (3aS,4S,5R,6S,7aS)-2-(azetidin-1-yl)-6-(difluoromethyl)-4-fluoro-3a,4,5,6,7,7a-hexahydrobenzo[d]oxazol-5-ol]
8.6	–	2.2	CNC1=N[C@@H]2[C@H](F)[C@H](O)[C@@H](CO)C[C@@H]2O1 [Example 12, (3aS,4S,5R,6R,7aS)-4-fluoro-6-(hydroxymethyl)-2-(methylamino)-3a,4,5,6,7,7a-hexahydrobenzo[d]oxazol-5-ol]
